In patent US20250186408A1, “TREATMENT OF PHARMACORESISTANT EPILEPSY” (Katholieke Universiteit Leuven, priority 2021, published 2025):
Like-named read-outs stand apart in the source and are kept apart here.

What was measured:
OPRM1 = OPRM1 (Homo sapiens, UniProt P35372); assay: cAMP OPRM1 Antagonist; details: for Emax: OPRM1, read-out: Max response
Method: (§1) In vitro pharmacological profiling of compounds was done against 78 functional assays for 47 common off-targets (30) by Eurofins DiscoverX Corporation (Fremont, CA, USA) using their SAFETYscan E/IC50 ELECT service (Cat Ref 87-1003DR, Safety47 Panel Dose Response). […] Compounds were tested in a range of 10 concentrations, following a 3-fold serial dilution, starting from 10 μM. The assays were performed utilizing the PathHunter enzyme fragment complementation (EFC) technology, FLIPR®-based cellular screening assays, and KINOMEscan kinase binding assays.
(§2) cAMP Hunter cell lines were expanded from freezer stocks. Prior to testing, cells were seeded in a total volume of 20 μL into white walled 384-well microplates and incubated at 37° C. cAMP modulation was determined using the DiscoverX HitHunter cAMP XS+ assay. For Gs agonist determination, cells were incubated with sample to induce response. For Gi agonist determination, cells were incubated with sample in the presence of EC80 forskolin to induce response. For both conditions, media was aspirated from cells and replaced with 15 μL 2:1 HBSS/10 mM HEPES:cAMP XS+ Ab reagent. Intermediate dilution of sample stocks was performed to generate 4× sample in assay buffer (containing 4×EC80 forskolin in the case of antagonist determination). 5 μL of 4× sample was added to cells and incubated at 37° C. or room temperature (RT) for 30 or 60 min. Final assay vehicle concentration was 1%. For antagonist determination, cells were pre-incubated with sample followed by agonist challenge at the EC80 concentration. Media was aspirated from cells and replaced with 10 μL 1:1 HBSS/HEPES:cAMP XS+ Ab reagent. 5 μL of 4× compound was added to the cells and incubated at 37° C. or RT for 30 min. 5 μL of 4×EC80 agonist was added to the cells and incubated at 37° C. or RT for 30 or 60 min. For Gi coupled GPCRs, EC80 forskolin was included. […] Microplates were read following signal generation with a PerkinElmer Envision™ instrument for chemiluminescent signal detection. Compound activity was analyzed using CBIS data analysis suite (ChemInnovation, CA). For Gs agonist mode assays, percentage activity was calculated using the following equation:

CHRM3 = CHRM3 (Homo sapiens, UniProt P20309); assay: Calcium Flux CHRM3 Agonist; details: for Emax: read-out: Max response
Method: as §1
(§3) Prior to testing, cells (10,000 cells/well) were expanded from freezer stocks and seeded into a total volume of 50 μL into black walled, clear-bottom, Poly-D-lysine coated 384-well microplates and incubated at 37° C. […] Assays were performed in 1× dye loading buffer consisting of 1× Dye (DiscoverX, Calcium No Wash^PLUS kit, Catalog No. 90-0091), 1× Additive A and 2.5 mM Probenecid in HBSS/20 mM HEPES. Probenecid was prepared fresh. Prior to testing, media was aspirated from cells and replaced with 25 μL dye loading buffer. Cells were incubated for 45 min at 37° C. and then 20 min at RT. For agonist determination, 25 μL of 2× compound in HBSS/20 mM HEPES was added using a FLIPR Tetra (MDS). For antagonist determination, cells were pre-incubated with sample followed by agonist challenge at the EC80 concentration. 25 μL of 2× sample was added and cells were incubated for 30 min at RT in the dark to equilibrate plate temperature. After incubation, antagonist determination was initiated by addition of 25 μL of 1× compound with 3×EC80 agonist using FLIPR. For both agonist and antagonist formats, activity was measure on a FLIPR Tetra (MDS). Calcium mobilization was monitored for 2 min with a 5 sec baseline read.
(§4) FLIPR read—Area under the curve, was calculated for the entire 2 min read. Compound activity was analysed using CBIS data analysis suite (ChemInnovation, CA).

HTR2B = HTR2B (Homo sapiens, UniProt P41595); assay: Calcium Flux HTR2B Antagonist; details: for Emax: read-out: Max response
Method: as §1, §3, §4

DRD2S = DRD2S (Homo sapiens, UniProt P14416); assay: cAMP DRD2S Antagonist; details: for Emax: read-out: Max response
Sequence of DRD2S (P14416 1-414 isoform P14416-2): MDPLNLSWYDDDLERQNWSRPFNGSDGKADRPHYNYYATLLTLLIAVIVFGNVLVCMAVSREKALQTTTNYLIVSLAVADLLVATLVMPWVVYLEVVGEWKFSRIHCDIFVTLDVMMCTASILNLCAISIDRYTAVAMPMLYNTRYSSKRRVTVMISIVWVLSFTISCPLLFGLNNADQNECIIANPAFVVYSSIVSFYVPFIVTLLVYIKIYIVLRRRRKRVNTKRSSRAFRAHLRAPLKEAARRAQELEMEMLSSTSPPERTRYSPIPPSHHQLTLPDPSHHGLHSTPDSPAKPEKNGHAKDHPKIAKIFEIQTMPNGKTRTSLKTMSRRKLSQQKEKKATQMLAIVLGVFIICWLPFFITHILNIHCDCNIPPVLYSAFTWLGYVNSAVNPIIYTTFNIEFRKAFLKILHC
Method: In vitro pharmacological profiling of compounds was done against 78 functional assays for 47 common off-targets (30) by Eurofins DiscoverX Corporation (Fremont, CA, USA) using their SAFETYscan E/IC50 ELECT service (Cat Ref 87-1003DR, Safety47 Panel Dose Response). […] Compounds were tested in a range of 10 concentrations, following a 3-fold serial dilution, starting from 10 μM.
(§5) cAMP Hunter cell lines were expanded from freezer stocks. Prior to testing, cells were seeded in a total volume of 20 μL into white walled 384-well microplates and incubated at 37° C. cAMP modulation was determined using the DiscoverX HitHunter cAMP XS+ assay. For Gs agonist determination, cells were incubated with sample to induce response. For Gi agonist determination, cells were incubated with sample in the presence of EC80 forskolin to induce response. For both conditions, media was aspirated from cells and replaced with 15 μL 2:1 HBSS/10 mM HEPES:cAMP XS+ Ab reagent. Intermediate dilution of sample stocks was performed to generate 4× sample in assay buffer (containing 4×EC80 forskolin in the case of antagonist determination). 5 μL of 4× sample was added to cells and incubated at 37° C. or room temperature (RT) for 30 or 60 min. Final assay vehicle concentration was 1%. For antagonist determination, cells were pre-incubated with sample followed by agonist challenge at the EC80 concentration. Media was aspirated from cells and replaced with 10 μL 1:1 HBSS/HEPES:cAMP XS+ Ab reagent. 5 μL of 4× compound was added to the cells and incubated at 37° C. or RT for 30 min. 5 μL of 4×EC80 agonist was added to the cells and incubated at 37° C. or RT for 30 or 60 min. For Gi coupled GPCRs, EC80 forskolin was included. […] Microplates were read following signal generation with a PerkinElmer Envision™ instrument for chemiluminescent signal detection. Compound activity was analyzed using CBIS data analysis suite (ChemInnovation, CA).

OPRK1 = OPRK1 (Homo sapiens, UniProt P41145); assay: cAMP OPRK1 Antagonist; details: for Emax: read-out: Max response
Sequence of OPRK1 (P41145 whole entry): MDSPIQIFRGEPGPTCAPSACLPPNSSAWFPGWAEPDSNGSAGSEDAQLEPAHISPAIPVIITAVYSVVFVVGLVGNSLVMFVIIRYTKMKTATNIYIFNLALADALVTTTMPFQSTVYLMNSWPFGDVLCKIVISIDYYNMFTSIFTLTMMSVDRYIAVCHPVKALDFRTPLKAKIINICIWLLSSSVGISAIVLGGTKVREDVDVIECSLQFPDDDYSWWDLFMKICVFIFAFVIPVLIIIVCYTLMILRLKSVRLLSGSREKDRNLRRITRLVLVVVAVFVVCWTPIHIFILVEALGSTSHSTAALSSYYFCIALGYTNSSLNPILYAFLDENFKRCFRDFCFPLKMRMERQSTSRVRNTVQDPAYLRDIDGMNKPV
Method: as §1, §2

DRD1 = DRD1 (Homo sapiens, UniProt P21728); assay: cAMP DRD1 Agonist; details: for Emax: read-out: Max response
Sequence of DRD1 (P21728 whole entry): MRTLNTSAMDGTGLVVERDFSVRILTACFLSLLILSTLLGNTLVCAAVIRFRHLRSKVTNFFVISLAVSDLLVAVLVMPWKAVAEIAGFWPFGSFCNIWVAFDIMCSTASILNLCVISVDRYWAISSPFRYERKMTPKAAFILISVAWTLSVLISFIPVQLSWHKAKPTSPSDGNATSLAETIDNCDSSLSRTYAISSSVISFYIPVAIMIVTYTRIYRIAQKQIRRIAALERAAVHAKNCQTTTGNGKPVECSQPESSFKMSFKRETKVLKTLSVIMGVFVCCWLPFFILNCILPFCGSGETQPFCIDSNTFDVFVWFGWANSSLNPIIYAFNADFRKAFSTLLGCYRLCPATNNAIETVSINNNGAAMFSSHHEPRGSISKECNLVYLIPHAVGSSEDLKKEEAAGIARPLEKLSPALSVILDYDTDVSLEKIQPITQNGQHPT
Method: as §1, §5

CHRM1 = biological target: T1, CHRM1 (Homo sapiens, UniProt P11229); assay: Calcium Flux CHRM1 Antagonist; details: for Emax: read-out: Max response
T1 sequence (P11229 1-460): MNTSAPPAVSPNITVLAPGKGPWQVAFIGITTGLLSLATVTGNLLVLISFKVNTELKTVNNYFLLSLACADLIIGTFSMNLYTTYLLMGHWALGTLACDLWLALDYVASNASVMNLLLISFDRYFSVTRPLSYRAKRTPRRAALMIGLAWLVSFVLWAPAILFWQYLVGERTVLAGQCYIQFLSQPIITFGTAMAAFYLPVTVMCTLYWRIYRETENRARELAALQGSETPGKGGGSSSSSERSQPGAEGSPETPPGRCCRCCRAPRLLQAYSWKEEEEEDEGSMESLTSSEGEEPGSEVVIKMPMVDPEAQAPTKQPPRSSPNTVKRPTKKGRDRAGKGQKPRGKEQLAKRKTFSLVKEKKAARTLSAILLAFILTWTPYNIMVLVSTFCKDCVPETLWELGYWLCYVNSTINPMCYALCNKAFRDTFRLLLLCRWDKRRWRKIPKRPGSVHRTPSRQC
Method: as §1, §3, §4

NAV1.5 = NAV1.5 (Homo sapiens, UniProt Q14524); assay: Ion Channel NAV1.5 Blocker; assay type: cell-based; details: for Emax at 30 min: Ion Channel NAV1.5 Blocker, read-out: Max response
Sequence of NAV1.5 (Q14524 whole entry): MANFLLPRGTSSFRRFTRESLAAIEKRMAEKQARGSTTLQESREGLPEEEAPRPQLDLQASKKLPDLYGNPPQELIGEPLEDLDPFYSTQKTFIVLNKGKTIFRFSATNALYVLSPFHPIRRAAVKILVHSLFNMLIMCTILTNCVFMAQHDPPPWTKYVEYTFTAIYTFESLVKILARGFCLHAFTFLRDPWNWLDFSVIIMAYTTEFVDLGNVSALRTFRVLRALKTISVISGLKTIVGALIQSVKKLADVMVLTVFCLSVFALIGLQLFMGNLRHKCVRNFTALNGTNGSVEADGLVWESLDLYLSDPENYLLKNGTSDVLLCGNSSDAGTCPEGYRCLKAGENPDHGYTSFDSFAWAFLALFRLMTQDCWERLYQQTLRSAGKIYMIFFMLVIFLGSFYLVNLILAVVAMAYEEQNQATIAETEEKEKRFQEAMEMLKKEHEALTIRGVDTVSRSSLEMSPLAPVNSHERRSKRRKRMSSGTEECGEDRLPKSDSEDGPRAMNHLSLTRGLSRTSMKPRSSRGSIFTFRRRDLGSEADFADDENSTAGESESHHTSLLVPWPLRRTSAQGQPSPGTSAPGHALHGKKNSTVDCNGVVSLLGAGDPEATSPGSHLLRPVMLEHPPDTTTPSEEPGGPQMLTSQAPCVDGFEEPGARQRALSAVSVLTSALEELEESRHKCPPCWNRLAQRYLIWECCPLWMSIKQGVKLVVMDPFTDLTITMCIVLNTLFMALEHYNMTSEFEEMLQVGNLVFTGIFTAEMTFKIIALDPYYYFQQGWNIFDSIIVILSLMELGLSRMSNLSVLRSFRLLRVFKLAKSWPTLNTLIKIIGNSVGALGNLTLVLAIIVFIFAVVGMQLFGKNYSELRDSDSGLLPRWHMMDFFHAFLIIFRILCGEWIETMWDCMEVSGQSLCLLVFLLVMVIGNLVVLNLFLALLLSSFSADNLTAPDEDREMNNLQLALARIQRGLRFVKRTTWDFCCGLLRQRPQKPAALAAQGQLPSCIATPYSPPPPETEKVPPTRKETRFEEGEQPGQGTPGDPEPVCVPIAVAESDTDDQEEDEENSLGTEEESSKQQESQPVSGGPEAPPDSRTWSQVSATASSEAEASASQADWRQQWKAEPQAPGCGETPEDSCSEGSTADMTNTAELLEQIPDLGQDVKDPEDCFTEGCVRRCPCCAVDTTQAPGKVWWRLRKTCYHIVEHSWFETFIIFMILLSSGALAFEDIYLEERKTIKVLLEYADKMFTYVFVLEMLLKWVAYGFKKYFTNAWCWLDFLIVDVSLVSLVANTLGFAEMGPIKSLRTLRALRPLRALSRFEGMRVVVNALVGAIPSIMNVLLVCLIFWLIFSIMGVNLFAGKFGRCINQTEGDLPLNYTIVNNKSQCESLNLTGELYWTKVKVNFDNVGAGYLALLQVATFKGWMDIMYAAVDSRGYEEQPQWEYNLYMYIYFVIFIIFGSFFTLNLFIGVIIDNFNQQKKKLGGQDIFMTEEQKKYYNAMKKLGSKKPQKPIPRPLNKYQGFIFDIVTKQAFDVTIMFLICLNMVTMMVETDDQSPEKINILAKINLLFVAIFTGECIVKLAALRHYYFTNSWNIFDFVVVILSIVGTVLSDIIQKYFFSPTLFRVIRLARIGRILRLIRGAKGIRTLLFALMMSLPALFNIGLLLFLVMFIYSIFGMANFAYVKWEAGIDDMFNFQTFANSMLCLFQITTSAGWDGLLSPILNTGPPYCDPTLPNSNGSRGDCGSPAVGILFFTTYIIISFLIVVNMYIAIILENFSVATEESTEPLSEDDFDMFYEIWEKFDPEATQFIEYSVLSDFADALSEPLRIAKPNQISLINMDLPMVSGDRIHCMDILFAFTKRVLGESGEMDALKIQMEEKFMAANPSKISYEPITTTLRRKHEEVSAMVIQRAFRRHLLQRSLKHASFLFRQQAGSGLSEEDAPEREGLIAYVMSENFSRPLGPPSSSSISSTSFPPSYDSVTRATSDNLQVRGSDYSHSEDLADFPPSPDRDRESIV

Caco-2 permeability = assay type: in vitro ADME; details: human; for recovery at 10 μM: Caco-2, Caco-2, 10 μM; for Papp A→B at 10 μM / Papp B→A at 10 μM: Caco-2, pH 6.5 and 7.4, 10 μM; for Papp A→B at 10 μM: apical to basolateral; for Papp B→A at 10 μM: basolateral to apical
Text: In vitro ADME profiling of compounds was done by Eurofins Panlabs Inc (St Charles, MO, USA) using their ADME-Tox service (Cat Ref P375, Tier 1 ADME Panel). […] (28). The atom-based log P calculation method, called OsirisP, uses as an increment system and adds contributions of every atom based on its atom type. The prediction engine distinguishes a total of 368 atom types and was optimized using a training set of more than 5000 molecules with experimentally determined log P values. The free prediction engine has proven to outperform many alternative calculation methods (29).
Caco-2 cells were derived from a human colorectal adenocarcinoma. For permeability assays, cells were seeded at 1×10^5 cells/cm2 in 96 Multiscreen™ plates (Millipore) and used at days 21-25 post-seeding. Cells were used for 15 consecutive passages in culture. HBSS with 10 mM MES at pH 6.5 (apical side) or HBSS with HEPES at pH 7.4 (basolateral side) were used as the transport buffers. Test compounds were added at 10 μM concentration (final solvent concentration of 1% DMSO) to the apical side to determine apical to basolateral (A-B) transport and to the basal side to determine basolateral to apical (B-A) transport. For inhibition studies, 100 μM verapamil was included on both the A and B sides. Aliquots were taken from the donor side (A-B transport) at time zero and the end point, and from the receiver side (B-A transport) at the end point. Propranolol, labetalol, ranitidine, and colchicine (P-glycoprotein substrate) were included in each assay. Samples were analysed by HPLC-MS/MS for quantification. Papp (cm/sec) was calculated from the following equation: […]
Where VR is the volume of the receiver, C is the concentration of the test compound (either at the donor or receiver side and at mid-point or end point of the incubation), Δt is the incubation time (seconds) and A is the surface area of the cell monolayer (0.11 cm^2).

ADORA2A = ADORA2A (Homo sapiens, UniProt P29274); assay: Calcium Flux ADORA2A Agonist; assay type: cell-based; details: for EC50: read-out: RC50, result type EC50; for Emax: read-out: Max response
Sequence of ADORA2A (P29274 whole entry): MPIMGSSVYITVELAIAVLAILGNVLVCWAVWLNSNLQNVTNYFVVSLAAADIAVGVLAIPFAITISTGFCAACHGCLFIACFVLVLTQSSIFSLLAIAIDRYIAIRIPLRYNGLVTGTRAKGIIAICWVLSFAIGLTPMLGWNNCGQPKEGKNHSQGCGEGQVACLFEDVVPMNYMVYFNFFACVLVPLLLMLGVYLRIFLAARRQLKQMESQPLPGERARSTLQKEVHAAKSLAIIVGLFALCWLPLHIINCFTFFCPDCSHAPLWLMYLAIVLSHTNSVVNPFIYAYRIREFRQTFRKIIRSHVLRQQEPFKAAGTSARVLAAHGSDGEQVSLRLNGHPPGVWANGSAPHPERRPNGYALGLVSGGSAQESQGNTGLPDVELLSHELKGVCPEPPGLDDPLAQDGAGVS
Method: (≤0.2% DMSO concentration). Assays were performed in 1× dye loading buffer consisting of 1× Dye (DiscoverX, Calcium No Wash^PLUS kit, Catalog No. 90-0091), 1× Additive A and 2.5 mM Probenecid in HBSS/20 mM HEPES. Probenecid was prepared fresh. Prior to testing, media was aspirated from cells and replaced with 25 μL dye loading buffer. Cells were incubated for 45 min at 37° C. and then 20 min at RT. For agonist determination, 25 μL of 2× compound in HBSS/20 mM HEPES was added using a FLIPR Tetra (MDS). […] 25 μL of 2× sample was added and cells were incubated for 30 min at RT in the dark to equilibrate plate temperature. After incubation, antagonist determination was initiated by addition of 25 μL of 1× compound with 3×EC80 agonist using FLIPR. For both agonist and antagonist formats, activity was measure on a FLIPR Tetra (MDS). Calcium mobilization was monitored for 2 min with a 5 sec baseline read.
FLIPR read—Area under the curve, was calculated for the entire 2 min read.

[1] = read-out: percentual recovery, apical to basolateral direction
[2] = read-out: percentual recovery, basolateral to apical direction

Sequence of OPRM1 (P35372 whole entry): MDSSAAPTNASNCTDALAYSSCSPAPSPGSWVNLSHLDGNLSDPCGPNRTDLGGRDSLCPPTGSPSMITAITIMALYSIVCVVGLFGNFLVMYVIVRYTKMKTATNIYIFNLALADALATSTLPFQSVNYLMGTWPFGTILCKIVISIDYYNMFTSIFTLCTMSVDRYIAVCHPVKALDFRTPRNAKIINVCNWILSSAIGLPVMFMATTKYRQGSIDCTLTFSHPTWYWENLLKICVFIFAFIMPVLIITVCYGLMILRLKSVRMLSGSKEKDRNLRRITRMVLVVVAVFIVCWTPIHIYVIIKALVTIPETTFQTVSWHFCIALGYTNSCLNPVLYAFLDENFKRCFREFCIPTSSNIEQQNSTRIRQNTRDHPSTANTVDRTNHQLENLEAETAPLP
Sequence of CHRM3 (P20309 whole entry): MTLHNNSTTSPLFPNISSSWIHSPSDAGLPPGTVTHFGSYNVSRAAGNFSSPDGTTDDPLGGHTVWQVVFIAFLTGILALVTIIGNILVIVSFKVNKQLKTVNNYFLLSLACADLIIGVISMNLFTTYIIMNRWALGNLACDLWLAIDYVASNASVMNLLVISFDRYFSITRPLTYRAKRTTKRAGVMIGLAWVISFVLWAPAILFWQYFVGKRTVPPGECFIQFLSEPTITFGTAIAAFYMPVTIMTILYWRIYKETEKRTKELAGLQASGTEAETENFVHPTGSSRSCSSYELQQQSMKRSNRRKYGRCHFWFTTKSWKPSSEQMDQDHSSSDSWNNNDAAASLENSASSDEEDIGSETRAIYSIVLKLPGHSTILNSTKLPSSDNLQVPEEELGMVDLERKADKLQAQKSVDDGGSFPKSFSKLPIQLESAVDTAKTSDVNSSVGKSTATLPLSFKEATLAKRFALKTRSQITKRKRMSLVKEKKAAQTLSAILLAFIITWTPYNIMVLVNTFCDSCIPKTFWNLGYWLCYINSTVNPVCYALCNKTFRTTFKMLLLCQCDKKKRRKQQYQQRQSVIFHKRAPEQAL

| SMILES | IC50 (OPRM1) [µM] | Emax (OPRM1) [%] | EC50 (CHRM3) [µM] | Emax (CHRM3) [%] | IC50 (HTR2B) [µM] | Emax (HTR2B) [%] | IC50 (DRD2S) [µM] | Emax (DRD2S) [%] | IC50 (OPRK1) [µM] | Emax (OPRK1) [%] | EC50 (DRD1) [µM] | Emax (DRD1) [%] | IC50 (CHRM1) [µM] | Emax (CHRM1) [%] | IC50 (NAV1.5) [µM] | Emax at 30 min (NAV1.5) [%] | recovery at 10 μM (Caco-2 permeability; [1]) [%] | recovery at 10 μM (Caco-2 permeability; [2]) [%] | Papp A→B at 10 μM (Caco-2 permeability) [×10⁻⁶ cm/s] | Papp B→A at 10 μM (Caco-2 permeability) [×10⁻⁶ cm/s] | further results |
| --- | --- | --- | --- | --- | --- | --- | --- | --- | --- | --- | --- | --- | --- | --- | --- | --- | --- | --- | --- | --- | --- |
| CC(C)(C)c1ccc(C#CC(O)c2ccccc2)cc1 (racemic) [Compound 3.3, rac-3-(4-(tert-butyl)phenyl)-1-phenylprop-2-yn-1-ol] | > 10 | 0.8 | > 10 | 0 | > 10 | 0 | 7.9 | 63.5 | > 10 | 8.9 | > 10 | 1.2 | > 10 | 0 | > 10 | 59.9 | 6 | 15 | 0.4 | 0.1 | EC50 (ADORA2A; Calcium Flux ADORA2A Agonist): > 10 µM; Emax (ADORA2A): 1.8% |
| Clc1cccc(C#Cc2n[nH]c3ncccc23)c1 [Compound 10.1, 3-((3-chlorophenyl)ethynyl)-1H-pyrazolo[3,4-b]pyridine] | > 10 | 0 | > 10 | 2.2 | > 10 | 8.8 | > 10 | 0 | > 10 | 0 | > 10 | 1.3 | > 10 | 5.5 | > 10 | 21.5 | 13 | 44 | 3.3 | 0.7 | Emax (ADORA2A; Calcium Flux ADORA2A Agonist): 3%; EC50 (ADORA2A; Calcium Flux ADORA2A Agonist): > 10 µM |
